Experimental data: patent US8802660B2, “De novo synthesis of glucocorticoids in the epidermis and its uses and applications” (New York University, priority 2007, dated 2014)

Tests used:
skin explant cultures = assay: ELISA assay for cortisol released from skin explant cultures; format: cell-based, human; conditions: for effect on cortisol production (in words): 24 hours, metyrapone 200 μM; for induction of cortisol levels / cortisol production: after 24 hours, ACTH 0.1 μM, progesterone 1 μM
Experimental: (§1) Cells were cultured to 80% of confluency as described above in Example 1(C). 200 μl of the medium was collected at 0, 6, 12, 24, and 48 hours after the switch to basal medium, and cortisol production was measured using ELISA kit (R & D Systems, Minneapolis, Minn.) following commercial protocol.
(§2) To further confirm that keratinocytes produce glucocorticoids de novo, medium was collected from cultured cells grown in the minimal medium in the absence of any alternative GC source as described in Example 1(C). Cortisol production was measured after 0, 6, 12, 24, and 48 hours using the ELISA assay described in Example 1(E). To confirm the production in tissue, the production of cortisol released from skin in explant cultures was measured. As shown in FIG. 3(B), 11.1 ng/ml of cortisol was released by the skin.
(§3) A further experiment was performed where prior to measurement both the keratinocytes and the skin explant cultures were stimulated with 0.1 μM of ACTH. Cortisol production was measured after 24 hours using the ELISA assay described in Example 1(E). […] The addition of 1 μM of progesterone as a substrate for glucocorticoid synthesis lead to a 2.5 fold induction in cortisol production in both cells and skin (FIG. 7B). The addition of 200 μM metyrapone (Sigma) decreased endogenous levels of cortisol production (FIG. 7B).
(§4) To determine if injury-related molecules affect cortisol synthesis, IL-1 or IGF-1 was added to keratinocytes cultured as described in Example 1(C) or skin explants. IL-1 is a primary injury-response pro-inflammatory signal whereas IGF-1 is known to modulate glucocorticoid metabolism (Rappolee et al. (1988) Science 241:708-12). ACTH was used as a positive control. Cortisol levels were measured 24 hours post-treatment using the ELISA assay described in Example 1(E). […] In contract, IGF-1 inhibited cortisol production in both treated cells and tissue (FIG. 8(A)).

[1] = tested on: primary human keratinocytes; assay: ELISA assay for cortisol in medium of cultured keratinocytes; format: cell-based; conditions: for effect on cortisol production (in words) / induction of cortisol levels / cortisol production: keratinocytes; for effect on cortisol production (in words): 24 hours, metyrapone 200 μM; for induction of cortisol levels / cortisol production: after 24 hours, ACTH 0.1 μM, progesterone 1 μM
Experimental: Normal human epidermal keratinocytes were initiated using 3T3 feeder layers as previously described (Randolph and Simon (1993) J. Biol. Chem. 268(13):9198-9205) and frozen in liquid nitrogen until use. Once thawed, the keratinocytes were grown without feeder cells in defined serum-free keratinocyte medium supplemented with epidermal growth factor and bovine pituitary extract (keratinocyte-SFM, GIBCO, Carlsbad, Calif.). Cells were expanded through two 1:4 passages before they were grown to 80% confluency. Cells were washed several times with 1×PBS before they were incubated with basal keratinocyte medium (GIBCO) custom made without hydrocortisone and thyroid hormone.
as §1, §2
as §3, with “Cortisol” for “A further experiment was performed where prior to measurement both the keratinocytes and the skin explant cultures were stimulated with 0.1 μM of ACTH. Cortisol”
as §4

[2] = tested on: acute wounds in human skin specimens; assay: Epithelialization in acute wounding model of human skin (histology); conditions: topical; air-liquid interface for 6 days; metyrapone 200 μM
Description: Human skin specimens were obtained from discarded tissue in reduction mammoplasty following approved Hospital for Special Surgery protocol (#25121). Preparation of tissue with acute wounds was done as previously described (Tomic-Canic et al. (2007) Wound Repair Regen. 15(1):71-9); Stojadinovic et al. (2005) Am. J. Pathol. 167(1):59-69). The adipose tissue was removed, and circular templates of skin were generated using a 6 mm biopsy punch. A 3 mm biopsy punch was used to create an acute wound. The skin specimens were maintained at the air-liquid interface with DMEM (BioWhittaker, Walkersville, Md.) with antibiotics-antimycotics, and fetal bovine serum (FBS) (Gemini Bio-Products, Woodland, Calif.) for 0, 4, 48, and 96 hours in the presence or absence of 1 μM dexamethasone (Sigma, St. Louis, Mo.). Acute wounds were fixed in 4% paraformaldehyde (Sigma) at room temperature overnight, dehydrated with ethanol, cleared in chloroform, and embedded in paraffin.
The effect of glucocorticoids on epithelialization was tested using the acute wounding model described in Example 1(A). The wounded skin was maintained at the air-liquid interface for 6 days. Wounds were maintained in the presence or absence of clobetasol propionate (routinely used by dermatologists in the treatment of inflammatory skin disorders). Healing rates was determined by histology. […]

glucocorticoid receptor = assay: Immunohistochemistry of phosphorylated (hormone-activated) GR in acute wound sections; parameters: species or system human; conditions: treated acute wound samples
Description: Human skin specimens were obtained from discarded tissue in reduction mammoplasty following approved Hospital for Special Surgery protocol (#25121). […] The adipose tissue was removed, and circular templates of skin were generated using a 6 mm biopsy punch. A 3 mm biopsy punch was used to create an acute wound. […] Acute wounds were fixed in 4% paraformaldehyde (Sigma) at room temperature overnight, dehydrated with ethanol, cleared in chloroform, and embedded in paraffin.
Six μm tissue sections were serially cut on a microtome (HM 315, Carl Zeiss, New York, N.Y.) and mounted on slides. Sections were dewaxed in xylene, re-hydrated and washed with 1× phosphate buffered saline (PBS). For antigen retrieval, paraffin sections were heated in a 95° C. water bath in Target Retrieval Solution (DAKO Corporation, Carpinteria, Calif.). Histological slides were treated with 3% H2O2/30% MeOH for 30 minutes, rinsed with water, and blocked with normal rabbit serum for 30 minutes (Vectastatin Kit Elite ABC, Vectorlabs, Burlingame, Calif.). […] Sections were analyzed using a Carl Zeiss microscope. […]

c-myc = assay: Northern Blot and Western Blot of c-myc in keratinocytes and tissue; format: cell-based, human
Experimental: Keratinocytes were grown to 80% confluency, switched to the basal media for 24 hours, and incubated with 1 mM dexamethasone (Sigma) for 24 and 48 hours. Cells were harvested by trypsinization and cytoplasmic and nuclear fractions were obtained using Nuclear Extract Kit (Active Motif, Carlsbad, Calif.) following commercial protocol. 15 μg of each fraction was separated on a 10% SDS-PAGE gel. The proteins were then transferred to a nitrocellulose membrane (Protran®, Bioscience, Dassel, Germany) using the semi-dry transfer system (BioRad, Hercules, Calif.). Ponceau S was used to check the efficiency of the transfer. […] The membrane was washed 3 times for 5 minutes in TTBS and then incubated at 4° C. overnight with GR antibody (1:500) (Affinity Bioreagents) followed with horseradish […] (HRP) conjugated to anti-rabbit secondary antibody (1:1000) (Santa Cruz Biotech, Santa Cruz, Calif.). Immune complexes were visualized using Super Signal West Pico Chemiluminescent substrate (Pierce, Rockford, Ill.). Immunoblot was exposed on x-ray film (HyBlot CL, Denville, N.J.) according to manufacturer's instruction.
It was also found by Northern Blot analysis using acute wound tissue that c-myc was induced at 96 hours post-wounding (FIG. 11(B)).
Using Western Blot analysis, it was shown that protein levels of c-myc were induced by exogenous glucocorticoid and blocked by metyrapone (FIG. 11(C)).

β-catenin = assay: Immunohistochemistry of phosphorylated β-catenin in chronic wound biopsies (diabetic foot ulcers); parameters: species or system human; conditions: topically applied to chronic wound biopsies
Experimental: Chronic wound tissue was obtained from discarded tissue of biopsies of consenting patients having surgical debridement using approved Columbia University protocol.
Slides were counterstained with hematoxylin. […] Sections were analyzed using a Carl Zeiss microscope. Digital images were taken with Adobe TWAIN—32 program.
It has been previously reported that β-catenin and c-myc participate in inhibition of wound healing and contribute to the impairment of healing in chronic wounds. […] To test if endogenous glucocorticoid participates in β-catenin activation in patients with chronic wounds, metyrapone was topically applied to chronic wound biopsies from patients with diabetic foot ulcers (as described in Example 1(A)). The effects were evaluated by measuring phosphorylation and intracellular translocation of β-catenin by immunohistochemistry as described in Example 1(B), except using an antibody targeting phosphorylated (activated) form of β-catenin (Cell Signaling Technology, Danvers, Mass.). […] As also shown in FIG. 12, this effect can be reversed by the addition of an exogenous glucocorticoid.

CYP11B1 = assay: RT-PCR of CYP11B1 expression in treated keratinocytes; format: cell-based, human
Experimental: RNA isolation and purification was performed using Triazol (Invitrogen, Carlsbad, Calif.) extraction and subsequent Qiagen RNeasy Kit column purification (Qiagen, Alameda, Calif.). Reverse transcription and amplification were performed using primers CYP11B1 fw GCTAGACATAGGGGCTCC (SEQ ID no. 1), CYP11B1-rev AGGTGTTTCAGCACATGG (SEQ ID no. 2)and Access RT-PCR Kit (Promega, Madison, Wis.) as follows: (a) reverse transcription—1 cycle at 48° C. for 45 minutes; (b) AMV RT inactivation and RNA/cDNA primer denaturation—1 cycle at 94° C. for 2 minutes; (c) second strand cDNA synthesis and PCR amplification—35 cycles: denaturation for 30 seconds, annealing at 51° C. for 1 minute and extension at 68° C. for 2 minutes; and (d) final extension—1 cycle at 68° C. for 7 minutes. Samples were separated by electrophoresis on 2% agarose gels containing 0.5 μg/ml of ethidium bromide and visualized under UV light.
To elucidate the possible mechanism of regulation involved in these observations, the expression of CYP11B1 was measured using RT-PCR as described in Example 1(G). The expression levels of CYP11B1 corresponded to the cortisol production. IL-1 induced the expression of CYP11B1 similar to ACTH, whereas IGF-1 inhibited its expression (FIG. 8(B)).

Compound | effect on cortisol production (in words) [1] | effect on cortisol production (in words) (skin explant cultures; skin explants) | epithelialization / wound closure [2] | induction of cortisol levels / cortisol production [1] [fold] | induction of cortisol levels / cortisol production (skin explant cultures; skin explants) [fold] | expression of CYP11B1 (RT-PCR) (CYP11B1) | other results
[Ca+2].[Cl-].[Cl-] [CaCl2] |  |  |  |  |  |  | effect on cortisol production in the skin (skin explant cultures; increased CaCl2 levels): decrease
CC(C)(C(=O)c1cccnc1)c1cccnc1 [metyrapone] | decreased | decreased | complete wound closure |  |  |  | hormone-activated GR in the nucleus (anti-phospho-Ser211 staining) (glucocorticoid receptor): absence of GR in the nucleus; protein levels of c-myc (Western Blot) (c-myc): blocked; β-catenin phosphorylation and nuclearization (β-catenin): abolished
adrenocorticotropic hormone (SYSMEHFRWGKPVGKKRRPVKVYPNGAEDESAEAFPLEF; Corticotropin; UniProt P01189 138-176, looked up) [ACTH, stimulates synthesis of glucocorticoid] |  |  |  | 2.7 | 2.0 | induced | induction of cortisol levels ([1]; keratinocytes in culture, 0.1mM of ACTH): 2.7 fold; induction of cortisol levels (skin explant cultures; skin explants, 0.1 μM of ACTH): 2.01 fold
IGF-1: known to modulate glucocorticoid metabolism | inhibited | inhibited |  |  |  | inhibited | 
CC(=O)[C@H]1CC[C@H]2[C@@H]3CCC4=CC(=O)CC[C@]4(C)[C@H]3CC[C@]12C [progesterone] |  |  |  | 2.5 | 2.5 |  | 
CCC(=O)O[C@]1(C(=O)CCl)[C@@H](C)C[C@H]2[C@@H]3CCC4=CC(=O)C=C[C@]4(C)[C@@]3(F)[C@@H](O)C[C@@]21C [clobetasol propionate] |  |  | completely inhibited epithelialization |  |  |  | 
